Laboratory results: ChEMBL document CHEMBL1909046, “DrugMatrix in vitro pharmacology data”

How the values were obtained:
Cytochrome P450 1A2 = target: T1, Cytochrome P450 1A2 (Homo sapiens, UniProt P05177); conditions: bti-tn-5b1-4; further: in other assays of this panel Not Active means under 50% inhibition at 10 µM
T1 sequence (P05177 whole entry): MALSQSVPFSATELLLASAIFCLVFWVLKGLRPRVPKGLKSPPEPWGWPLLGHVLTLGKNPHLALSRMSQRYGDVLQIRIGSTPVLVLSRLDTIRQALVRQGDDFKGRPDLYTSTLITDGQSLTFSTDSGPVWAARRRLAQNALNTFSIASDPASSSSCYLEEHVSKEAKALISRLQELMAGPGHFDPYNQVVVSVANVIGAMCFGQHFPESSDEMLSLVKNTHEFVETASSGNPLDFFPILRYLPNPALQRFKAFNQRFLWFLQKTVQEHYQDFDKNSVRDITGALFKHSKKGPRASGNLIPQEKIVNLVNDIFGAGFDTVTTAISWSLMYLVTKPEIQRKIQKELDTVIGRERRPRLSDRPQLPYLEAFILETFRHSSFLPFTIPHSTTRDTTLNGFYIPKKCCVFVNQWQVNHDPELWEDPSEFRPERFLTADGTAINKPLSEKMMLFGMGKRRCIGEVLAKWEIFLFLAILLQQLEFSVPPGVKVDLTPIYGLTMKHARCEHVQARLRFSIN

[1] = target: T2, Muscarinic acetylcholine receptor M4 (Homo sapiens, UniProt P08173); format: cell membranes, CHO-K1, Membrane; conditions: for Ki: read-out: Ki; on all read-outs here: in other assays of this panel Not Active means under 50% inhibition at 10 µM
T2 sequence (P08173 whole entry): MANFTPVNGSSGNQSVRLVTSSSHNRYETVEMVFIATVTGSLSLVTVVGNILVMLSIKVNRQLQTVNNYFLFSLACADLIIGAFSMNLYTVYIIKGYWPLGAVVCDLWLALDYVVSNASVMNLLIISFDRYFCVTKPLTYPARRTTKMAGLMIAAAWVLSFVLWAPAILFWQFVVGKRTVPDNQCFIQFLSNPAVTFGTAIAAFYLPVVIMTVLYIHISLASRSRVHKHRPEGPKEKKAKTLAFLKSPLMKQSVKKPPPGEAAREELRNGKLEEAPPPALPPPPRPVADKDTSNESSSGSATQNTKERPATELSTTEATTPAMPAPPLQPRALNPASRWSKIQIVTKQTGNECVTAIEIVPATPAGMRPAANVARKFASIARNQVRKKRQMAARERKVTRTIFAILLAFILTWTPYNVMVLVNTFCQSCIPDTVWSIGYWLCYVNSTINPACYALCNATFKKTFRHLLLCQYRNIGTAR

[2] = target: Tyrosine-protein kinase Lck (Homo sapiens, UniProt P06239); experiment: DRUGMATRIX: Protein Tyrosine Kinase, LCK enzyme inhibition (substrate: Poly(Glu:Tyr)); format: cell-based, Insect cells; conditions: insect cells; Not Active = under 50% inhibition at 10 µM
Substance-K receptor = target: T3, Substance-K receptor (Homo sapiens, UniProt P21452); format: cell membranes, CHO, Membrane; further: in other assays of this panel Not Active means under 50% inhibition at 10 µM
T3 sequence (P21452 whole entry): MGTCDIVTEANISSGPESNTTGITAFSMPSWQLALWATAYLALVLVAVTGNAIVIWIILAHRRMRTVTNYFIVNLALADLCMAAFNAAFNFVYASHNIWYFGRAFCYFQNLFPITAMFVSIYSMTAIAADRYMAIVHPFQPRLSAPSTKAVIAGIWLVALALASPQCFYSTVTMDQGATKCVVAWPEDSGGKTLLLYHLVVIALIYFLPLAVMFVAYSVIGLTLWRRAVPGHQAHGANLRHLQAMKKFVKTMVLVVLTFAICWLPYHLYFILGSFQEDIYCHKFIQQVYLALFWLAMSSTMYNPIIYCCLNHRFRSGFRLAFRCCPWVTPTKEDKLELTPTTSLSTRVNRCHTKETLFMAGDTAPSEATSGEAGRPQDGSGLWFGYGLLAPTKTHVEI

[3] = DRUGMATRIX: Interleukin IL-1 radioligand binding (ligand: [125I] interleukin 1beta); format: cell membranes, Membrane; conditions: nih3t3; Not Active = under 50% inhibition at 10 µM
Melanocortin receptor 3 = Melanocortin receptor 3 (Homo sapiens, UniProt P41968); format: cell membranes, HEK293, Membrane; conditions: hek293; further: in other assays of this panel Not Active means under 50% inhibition at 10 µM
[4] = DRUGMATRIX: Glutamate, NMDA, Phencyclidine radioligand binding (ligand: [3H] TCP); format: cell membranes, Rattus norvegicus, Wistar, Cerebral cortex, Membrane; conditions: Not Active = under 50% inhibition at 10 µM
[5] = target: T4, Neuropeptide Y receptor type 1 (Homo sapiens, UniProt P25929); format: cell membranes, Membrane; conditions: sk-n-mc; further: in other assays of this panel Not Active means under 50% inhibition at 10 µM
T4 sequence (P25929 whole entry): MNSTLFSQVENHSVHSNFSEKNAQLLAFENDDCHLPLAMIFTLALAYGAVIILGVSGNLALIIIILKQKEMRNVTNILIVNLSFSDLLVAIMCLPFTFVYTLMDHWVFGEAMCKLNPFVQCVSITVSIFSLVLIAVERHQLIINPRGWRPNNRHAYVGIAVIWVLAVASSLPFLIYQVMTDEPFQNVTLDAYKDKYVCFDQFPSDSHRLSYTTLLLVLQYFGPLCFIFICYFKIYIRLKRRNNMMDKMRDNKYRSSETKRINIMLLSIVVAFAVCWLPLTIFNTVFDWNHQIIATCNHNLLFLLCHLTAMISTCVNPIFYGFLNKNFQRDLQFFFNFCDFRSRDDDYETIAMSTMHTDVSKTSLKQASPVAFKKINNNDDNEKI

Sequence of Tyrosine-protein kinase Lck (P06239 whole entry): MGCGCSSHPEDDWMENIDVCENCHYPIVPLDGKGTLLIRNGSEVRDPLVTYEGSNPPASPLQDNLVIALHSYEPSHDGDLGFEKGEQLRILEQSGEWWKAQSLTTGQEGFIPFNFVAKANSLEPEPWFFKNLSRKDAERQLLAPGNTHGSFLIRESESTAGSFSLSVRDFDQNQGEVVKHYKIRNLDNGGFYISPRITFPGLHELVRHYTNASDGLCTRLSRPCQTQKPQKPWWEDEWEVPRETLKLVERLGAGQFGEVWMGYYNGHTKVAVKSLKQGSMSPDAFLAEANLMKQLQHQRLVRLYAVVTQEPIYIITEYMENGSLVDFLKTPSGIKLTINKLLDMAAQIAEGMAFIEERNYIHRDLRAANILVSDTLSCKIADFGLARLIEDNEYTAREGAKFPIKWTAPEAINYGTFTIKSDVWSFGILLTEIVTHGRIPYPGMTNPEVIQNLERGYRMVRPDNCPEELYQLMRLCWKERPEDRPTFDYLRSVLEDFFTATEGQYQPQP
Sequence of Melanocortin receptor 3 (P41968 whole entry): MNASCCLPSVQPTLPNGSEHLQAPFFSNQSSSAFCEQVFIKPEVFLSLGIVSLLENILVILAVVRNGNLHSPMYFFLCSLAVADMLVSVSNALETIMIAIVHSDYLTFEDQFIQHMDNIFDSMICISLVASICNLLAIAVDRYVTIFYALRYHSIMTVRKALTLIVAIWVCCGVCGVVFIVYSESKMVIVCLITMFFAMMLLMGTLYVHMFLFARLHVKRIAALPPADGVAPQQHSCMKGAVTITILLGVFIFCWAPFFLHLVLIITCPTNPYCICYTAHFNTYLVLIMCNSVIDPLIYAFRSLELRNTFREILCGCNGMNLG

SMILES	IC50 (Cytochrome P450 1A2)	Ki (Cytochrome P450 1A2)	IC50 ([1]; cho-k1)	IC50 [2]	IC50 (Substance-K receptor; cho)	IC50 [3]	Ki [3]	IC50 (Melanocortin receptor 3)	IC50 [4]	Ki [4]	IC50 [5]	IC50 ([1]; read-out: IC50) [µM]	Ki [1] [µM]	IC50 (Substance-K receptor; read-out: IC50) [µM]	Ki (Substance-K receptor; read-out: Ki) [µM]
Cc1c(N)nc([C@H](CC(N)=O)NC[C@H](N)C(N)=O)nc1C(=O)N[C@H](C(=O)N[C@H](C)[C@@H](O)[C@H](C)C(=O)N[C@H](C(=O)NCCc1nc(-c2nc(C(=O)NCCC[S+](C)C)cs2)cs1)[C@@H](C)O)[C@@H](O[C@@H]1O[C@@H](CO)[C@@H](O)[C@H](O)[C@@H]1O[C@H]1O[C@H](CO)[C@@H](O)[C@H](OC(N)=O)[C@@H]1O)c1c[nH]cn1.[Br-] [BLEOMYCIN A2]	Not Active	Not Active	Not Active	Not Active	Not Active	Not Active	Not Active	Not Active	Not Active	Not Active	Not Active				
OC[C@H]1OC2C3[C@@H](CO)OC(O[C@H]4[C@H](O)[C@@H](O)[C@@H](O[C@H]5[C@H](O)[C@@H](O)[C@@H](O[C@H]6[C@H](O)[C@@H](O)[C@@H](O[C@H]7[C@H](O)[C@@H](O)[C@@H](O[C@H]8[C@H](O)[C@@H](O)[C@@H](O[C@H]9[C@H](O)[C@@H](O)C(OC1[C@H](O)[C@H]2O)O[C@@H]9CO)O[C@@H]8CO)O[C@@H]7CO)O[C@@H]6CO)O[C@@H]5CO)O[C@@H]4CO)[C@H](O)[C@H]3O	Not Active	Not Active	Not Active	Not Active	Not Active	Not Active	Not Active	Not Active	Not Active	Not Active	Not Active				
CC(C)Cc1ccc([C@H](C)C(=O)O)cc1 [DEXIBUPROFEN]	Not Active	Not Active	Not Active	Not Active	Not Active	Not Active	Not Active	Not Active	Not Active	Not Active	Not Active				
CC(=O)[C@]1(O)Cc2c(O)c3c(c(O)c2[C@@H](O[C@H]2C[C@H](N)[C@H](O)[C@H](C)O2)C1)C(=O)c1ccccc1C3=O [IDARUBICIN]	Not Active	Not Active	Not Active	Not Active	Not Active	Not Active	Not Active	Not Active	Not Active	Not Active	Not Active				
NC(=O)NC(=O)Cc1ccccc1 [PHENACEMIDE]	Not Active	Not Active	Not Active	Not Active	Not Active	Not Active	Not Active	Not Active	Not Active	Not Active	Not Active				
Nc1ccc(C(=O)O)c(O)c1 [AMINOSALICYLIC ACID]	Not Active	Not Active	Not Active	Not Active	Not Active	Not Active	Not Active	Not Active	Not Active	Not Active	Not Active				
Nc1nc(N)c2nc(CNc3ccc(C(=O)N[C@@H](CCC(=O)O)C(=O)O)cc3)cnc2n1 [AMINOPTERIN]	Not Active	Not Active	Not Active	Not Active	Not Active	Not Active	Not Active	Not Active	Not Active	Not Active	Not Active				
CC(C)(C#N)c1cc(Cn2cncn2)cc(C(C)(C)C#N)c1 [ANASTROZOLE]	Not Active	Not Active	Not Active	Not Active	Not Active	Not Active	Not Active	Not Active	Not Active	Not Active	Not Active				
COc1cc(/C=C/C(=O)O)ccc1O [FERULATE]	Not Active	Not Active	Not Active	Not Active	Not Active	Not Active	Not Active	Not Active	Not Active	Not Active	Not Active				
COc1cc([C@@H]2c3cc4c(cc3[C@H](O)[C@H]3COC(=O)[C@H]23)OCO4)cc(OC)c1OC [PODOFILOX]	Not Active	Not Active	Not Active	Not Active	Not Active	Not Active	Not Active	Not Active	Not Active	Not Active	Not Active				
C[N+](C)(C)CCOC(N)=O.[Cl-] [CARBACHOL]	Not Active	Not Active	Not Active	Not Active	Not Active	Not Active	Not Active	Not Active	Not Active	Not Active	Not Active				
CC1(COc2ccc(CC3SC(=O)NC3=O)cc2)CCCCC1 (stereo not drawn) [CIGLITAZONE]	Not Active	Not Active		Not Active		Not Active	Not Active	Not Active	Not Active	Not Active	Not Active	16.2	2.26	12.6	4.19
Oc1ncnc2[nH]ncc12 [ALLOPURINOL]	Not Active	Not Active	Not Active	Not Active	Not Active	Not Active	Not Active	Not Active	Not Active	Not Active	Not Active				
Cc1cc(C(C)(C)C)c(O)c(C)c1CC1=NCCN1 [OXYMETAZOLINE]	Not Active	Not Active		Not Active	Not Active	Not Active	Not Active	Not Active	Not Active	Not Active	Not Active	3.26	0.455		
CC(C)Cn1cnc2c(N)nc3ccccc3c21 [IMIQUIMOD]	Not Active	Not Active	Not Active	Not Active	Not Active	Not Active	Not Active	Not Active	Not Active	Not Active	Not Active				
